Laboratory results published in patent US20200109126A1 (priority 2017, published 2020).
Where two headings read alike, the source gives them in different places.

Columns and labels:
hKOR = hKOR (Homo sapiens, UniProt P41145); assay: Receptor binding with [3H]diprenorphine at hKOR
humanDOR = humanDOR (Homo sapiens, UniProt P41143); assay: Receptor binding with [3H]diprenorphine at human DOR
hMOR = hMOR (Homo sapiens, UniProt P35372); assay: Receptor binding with [3H]diprenorphine at hMOR
[1] = PZM analogs, (n) = number of independent experiments, read-out: binding affinity Ki hKOR
[2] = PZM analogs, (n) = number of independent experiments, read-out: binding affinity Ki hDOR
[3] = PZM analogs, (n) = number of independent experiments, read-out: binding affinity Ki hMOR
[4] = ± SD (two experiments) or SEM, (n) experiments, read-out: hKOR [3H]dyprenorphine Ki
[5] = ± SD (two experiments) or SEM, (n) experiments, read-out: humanDOR [3H]dyprenorphine Ki
[6] = ± SD (two experiments) or SEM, (n) experiments, read-out: hMOR [3H]dyprenorphine Ki

Chain of hMOR (P35372 whole entry): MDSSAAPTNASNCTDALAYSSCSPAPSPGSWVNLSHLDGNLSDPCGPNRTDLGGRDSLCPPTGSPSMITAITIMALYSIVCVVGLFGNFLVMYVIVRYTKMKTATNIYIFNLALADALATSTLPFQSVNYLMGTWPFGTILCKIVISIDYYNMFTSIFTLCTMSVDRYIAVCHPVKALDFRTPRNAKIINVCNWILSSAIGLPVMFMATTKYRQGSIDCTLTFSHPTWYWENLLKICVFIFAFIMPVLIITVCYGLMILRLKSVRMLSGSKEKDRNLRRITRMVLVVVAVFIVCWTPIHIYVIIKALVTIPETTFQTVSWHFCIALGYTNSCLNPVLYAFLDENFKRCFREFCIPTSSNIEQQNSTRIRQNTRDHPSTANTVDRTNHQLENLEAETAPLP
Chain of humanDOR (P41143 whole entry): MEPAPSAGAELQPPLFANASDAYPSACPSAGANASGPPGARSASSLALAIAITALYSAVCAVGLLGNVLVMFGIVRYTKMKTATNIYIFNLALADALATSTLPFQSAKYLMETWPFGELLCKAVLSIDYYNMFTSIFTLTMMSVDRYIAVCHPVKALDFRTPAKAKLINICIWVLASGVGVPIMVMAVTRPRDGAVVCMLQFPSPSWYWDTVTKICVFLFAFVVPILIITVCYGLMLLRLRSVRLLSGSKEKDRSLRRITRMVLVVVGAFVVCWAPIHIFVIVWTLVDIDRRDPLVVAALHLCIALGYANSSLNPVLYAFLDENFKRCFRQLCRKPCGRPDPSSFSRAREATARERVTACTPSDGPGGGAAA
Chain of hKOR (P41145 whole entry): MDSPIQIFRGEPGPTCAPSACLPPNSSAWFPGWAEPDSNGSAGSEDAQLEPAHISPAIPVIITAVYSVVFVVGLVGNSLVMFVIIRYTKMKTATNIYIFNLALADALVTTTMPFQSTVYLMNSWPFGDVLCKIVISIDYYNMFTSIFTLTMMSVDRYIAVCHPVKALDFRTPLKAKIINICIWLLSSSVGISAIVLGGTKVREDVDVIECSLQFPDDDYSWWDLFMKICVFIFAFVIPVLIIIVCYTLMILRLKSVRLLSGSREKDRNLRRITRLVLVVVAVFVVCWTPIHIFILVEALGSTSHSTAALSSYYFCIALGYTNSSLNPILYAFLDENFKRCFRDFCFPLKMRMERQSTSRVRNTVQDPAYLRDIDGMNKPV

Compound | Ki (hKOR; [1]) | Ki (humanDOR; [2]) | Ki (hMOR; [3]) | also measured
CN(C)[C@@H](CNC(=O)NCCc1ccsc1)Cc1ccccc1 | 8.1 µM | 25 µM | 4.2 µM | 
CN(C)[C@H](CNC(=O)NCCc1ccsc1)Cc1ccccc1 | 3.1 µM | 4.5 µM | 0.35 µM | 
C[C@@H](Cc1ccsc1)NC(=O)NC[C@@H](Cc1ccccc1)N(C)C | 3.1 µM | 11 µM |  | 
C=CCN(C[C@H](Cc1ccccc1)N(C)C)C(=O)N[C@@H](C)Cc1ccsc1 | 1.7 µM | ~15 µM | 3.2 µM | 
C=CCN(C[C@H](Cc1ccccc1)N(C)C)C(=O)N[C@H](C)Cc1ccsc1 | 3.1 µM | ~15 µM | 4.1 µM | 
CN(C)[C@@H](CNC(=O)NC(C)(C)Cc1ccsc1)Cc1ccccc1 | 0.96 µM | 2.4 µM | 0.18 µM | 
CN(C)[C@H](CNC(=O)NC(C)(C)Cc1ccsc1)Cc1ccccc1 | 0.79 µM | 3 µM | 0.21 µM | 
CN(C)[C@@H](CNC(=O)NC(C)(C)Cc1ccccc1)Cc1ccccc1 | 1.1 µM | 1 µM | 0.64 µM | 
CN(C)[C@H](CNC(=O)NC(C)(C)Cc1ccccc1)Cc1ccccc1 | 0.93 µM | 3.3 µM | 0.49 µM | 
CN(C)[C@@H](CNC(=O)NCCc1ccsc1)Cc1ccc(O)cc1 | 5.2 µM | 11 µM | 1.5 µM | 
CN(C)[C@H](CNC(=O)OCCc1ccsc1)Cc1ccc(O)cc1 | 0.19 µM | 0.57 µM | 0.17 µM | 
CN[C@H](CNC(=O)NCCc1ccccc1)Cc1ccc(O)cc1 |  |  | 0.29 µM | 
C[C@H](Cc1ccsc1)NC(=O)NC[C@@H](Cc1ccc(O)cc1)N(C)C | 3.1 µM | 4.1 µM |  | 
C[C@@H](Cc1ccsc1)NC(=O)NC[C@@H](Cc1ccc(O)cc1)N(C)C | 2.3 µM | 4.8 µM |  | 
CN(C)[C@H](CNC(=O)CCCc1ccccc1)Cc1ccc(O)cc1 | 0.1 µM | 0.37 µM | 0.072 µM | 
C[C@H](Cc1csc2ccccc12)NC(=O)NC[C@H](Cc1ccc(O)cc1)N(C)C | 0.067 µM | 0.083 µM | 0.043 µM | 
CC(C)N(C[C@H](Cc1ccc(O)cc1)N(C)C)C(=O)N[C@@H](C)c1cccc2ccccc12 | 0.92 µM | 0.57 µM | 0.4 µM | 
CN(C)[C@@H](CNC(=O)NC(C)(C)Cc1ccsc1)Cc1ccc(O)cc1 | 1.3 µM | 2.9 µM | 0.31 µM | 
CN(C)[C@@H](CNC(=O)NC(C)(C)Cc1ccccc1)Cc1ccc(O)cc1 | 1.5 µM | 3.6 µM | 0.46 µM | 
C[C@@H](Cc1ccsc1)NC(=O)NC[C@H](Cc1ccnc(O)c1)N(C)C | 1.2 µM | 4.1 µM | 0.21 µM | 
Cc1cc(O)cc(C)c1C[C@@H](CNC(=O)NCCc1ccsc1)N(C)C | 0.027 µM | 0.051 µM | 0.0062 µM | 

Compound | Ki (hKOR; [1]) | Ki (humanDOR; [2]) | Ki (hMOR; [3]) | also measured
CN(C)[C@H](CNC(=O)NCCc1cn(Cc2ccccc2)nn1)Cc1ccc(O)cc1 |  | 0.38 µM |  | Ki (hKOR): 1.4 µM; Ki (hMOR): 0.2 µM
CN(CCCl)C(CNC(=O)NCCc1ccccc1)Cc1ccc(O)cc1 (stereo not shown) |  |  |  | Ki (humanDOR; binding affinity Ki hDOR, PZM analogs, (n) = number of independent experiments): 0.36 µM
CN(CCO)C(CNC(=O)NCCc1ccccc1)Cc1ccc(O)cc1 (stereo not shown) |  |  |  | Ki (hKOR): 1.3 µM; Ki (humanDOR): 1.8 µM; Ki (hMOR): 0.97 µM
CN[C@H](CNC(=O)N[C@@H](C)Cc1ccsc1)Cc1ccc(O)cc1 | 0.24 µM | 0.7 µM |  | 
C[C@@H](Cc1ccsc1)NC(=O)NCC(Cc1ccc(O)cc1)N(C)Cc1ccccc1 (stereo partly shown) | 0.21 µM | 0.72 µM | 0.22 µM | 
COc1ccccc1CCNC(=O)NCC(Cc1ccc(O)cc1)N(C)C (stereo not shown) | 0.14 µM | 0.15 µM | 0.022 µM | 
COc1cccc(CCNC(=O)NCC(Cc2ccc(O)cc2)N(C)C)c1 (stereo not shown) | 1.3 µM | 0.22 µM | 0.11 µM | 
COc1ccc(CCNC(=O)NCC(Cc2ccc(O)cc2)N(C)C)cc1 (stereo not shown) | 1.5 µM | 10 µM | 0.33 µM | 
CN(C)C(CNC(=O)NCCc1ccccc1F)Cc1ccc(O)cc1 (stereo not shown) | 0.44 µM | 0.053 µM | 0.043 µM | 
CN(C)C(CNC(=O)NCCc1cccc(F)c1)Cc1ccc(O)cc1 (stereo not shown) | 0.17 µM | 0.25 µM | 0.036 µM | 
CN(C)C(CNC(=O)NCCc1ccc(F)cc1)Cc1ccc(O)cc1 (stereo not shown) | 0.19 µM | 0.25 µM | 0.027 µM | 
O=C(NCCc1ccccc1)NC[C@H](Cc1ccc(O)cc1)N1CCCC1 | 0.77 µM | 1.5 µM | 0.66 µM | 
CN(C)[C@H](CNC(=O)NCCN1C(=O)C2C3C=CC(O3)C2C1=O)Cc1ccc(O)cc1 (stereo partly shown) |  |  |  | Ki (hKOR): 8.2 µM; Ki (humanDOR): 36 µM; Ki (hMOR): 2.3 µM
CC(Cc1csc2ccccc12)NC(=O)NC[C@H](Cc1ccc(O)cc1)N(C)C (mixture of isomers) | 0.019 µM |  | 0.014 µM | 
C[C@H](NC(=O)NC[C@H](Cc1ccc(O)cc1)N(C)C)c1ccccc1 (single isomer, unassigned) | 0.035 µM | 0.59 µM | 0.038 µM | 
CC(Cc1ccsc1)NC(=O)NCC(Cc1ccc(O)cc1)N(C)C (single isomer, unassigned) [BD 122DR] |  |  |  | Ki (hKOR; [4]): 3.1 µM; Ki (humanDOR; [5]): 4.1 µM
CC(Cc1ccsc1)NC(=O)NCC(Cc1ccc(O)cc1)N(C)C (single isomer, unassigned) [BD 122DS] |  |  |  | Ki (hKOR; [4]): 2.3 µM; Ki (humanDOR; [5]): 4.8 µM
CC(Cc1ccsc1)NC(=O)NCC(Cc1ccccc1)N(C)C (single isomer, unassigned) [BD 127DR] |  |  |  | Ki (hKOR; [4]): 5 µM; Ki (humanDOR; [5]): 12 µM
CC(Cc1ccsc1)NC(=O)NCC(Cc1ccccc1)N(C)C (single isomer, unassigned) [BD 127DS] |  |  |  | Ki (hKOR; [4]): 3.1 µM; Ki (humanDOR; [5]): 11 µM
CC(Cc1ccsc1)NC(=O)NCC(Cc1ccccc1)N(C)C (single isomer, unassigned) [BD 127LR] |  |  |  | Ki (hKOR; [4]): 1.3 µM; Ki (humanDOR; [5]): 1.8 µM
C[C@@H](Cc1ccsc1)NC(=O)NC[C@H](Cc1ccccc1)N(C)C [BD 127LS] |  |  |  | Ki (hKOR; [4]): 1 µM; Ki (humanDOR; [5]): 2.8 µM

Compound | Ki (hKOR; [1]) | Ki (humanDOR; [2]) | Ki (hMOR; [3]) | also measured
CN(C)[C@H](CNC(=O)NC(C)(C)Cc1ccsc1)Cc1cccc(O)c1 [DD 46L, (S)-1-(2-(dimethylamino)-3-(3-hydroxyphenyl)propyl)-3-(2-methyl-1-(thiophen-3-yl)propan-2-yl)urea] |  |  |  | Ki (hKOR; [4]): 0.032 µM; Ki (humanDOR; [5]): 0.19 µM; Ki (hMOR; [6]): 0.025 µM
C[C@H](NC(=O)NC[C@H](Cc1ccc(O)cc1)N(C)C)c1cccc2ccccc12 [DD 50LS, 1-((S)-2-(dimethylamino)-3-(4-hydroxyphenyl)propyl)-3-((S)-1-(naphthalen-1-yl)ethyl)urea] |  |  |  | Ki (hKOR; [4]): 0.071 µM; Ki (humanDOR; [5]): 0.57 µM; Ki (hMOR; [6]): 0.084 µM
Cc1ccc([C@H](C)NC(=O)NC[C@H](Cc2ccc(O)cc2)N(C)C)cc1 [DD 51LS, 1-((S)-2-(dimethylamino)-3-(4-hydroxyphenyl)propyl)-3-((S)-1-(p-tolyl)ethyl)urea] |  |  |  | Ki (hKOR): 0.18 µM; Ki (humanDOR): 0.7 µM; Ki (hMOR): 0.15 µM
C[C@H](Cc1ccccc1)NC(=O)NC[C@H](Cc1ccc(O)cc1)N(C)C [DD 61L-A, 1-((S)-2-(dimethylamino)-3-(4-hydroxyphenyl)propyl)-3-((R)-1-phenylpropan-2-yl)urea] |  |  |  | Ki (hKOR; [4]): 0.067 µM; Ki (humanDOR; [5]): 0.091 µM; Ki (hMOR; [6]): 0.081 µM
C[C@H](Cc1ccsc1)NC(=O)NC[C@@H](Cc1ccccc1)N(C)C [drawing 489] | 5 µM | 12 µM |  | 
C[C@@H](Cc1ccsc1)NC(=O)NC[C@H](Cc1ccccc1)N(C)C [drawing 492] | 1 µM | 2.8 µM |  | 
CN(C)[C@H](CNC(=O)NCCc1ccsc1)Cc1ccc(O)cc1 [drawing 500] | 0.15 µM | 0.33 µM | 0.043 µM | 
CN(C)[C@H](CNC(=S)NCCc1ccsc1)Cc1ccc(O)cc1 [drawing 501] | 0.086 µM | 0.07 µM | 0.029 µM | 
CN(C[C@H](Cc1ccc(O)cc1)N(C)C)C(=O)NCCc1ccccc1 [drawing 503] | 0.34 µM | 1.7 µM | 0.61 µM | 
CN(CCc1ccccc1)C(=O)NC[C@H](Cc1ccc(O)cc1)N(C)C [drawing 504] | 0.16 µM | 1.2 µM | 0.32 µM | 
CN(CCc1ccccc1)C(=O)N(C)C[C@H](Cc1ccc(O)cc1)N(C)C [drawing 505] | 0.22 µM | 4.2 µM | 0.49 µM | 
CN(CC1CC1)[C@H](CNC(=O)NCCc1ccccc1)Cc1ccc(O)cc1 [drawing 507] |  |  | 0.76 µM | 
C[C@@H](Cc1ccsc1)NC(=O)NC[C@H](Cc1ccc(O)cc1)N(C)C [drawing 512] | 0.018 µM | 1 µM |  | 
CN(C)[C@H](CNC(=O)NCCc1ccccc1)Cc1ccc(O)cc1 [drawing 514] | 0.045 µM | 0.25 µM | 0.047 µM | 
C[C@H](Cc1ccccc1)NC(=O)NC[C@H](Cc1ccc(O)cc1)N(C)C [drawing 516] | 0.067 µM | 0.091 µM | 0.081 µM | 
C[C@@H](Cc1ccccc1)NC(=O)NC[C@H](Cc1ccc(O)cc1)N(C)C [drawing 517] | 0.037 µM | 0.36 µM | 0.042 µM | 
C[C@@H](Cc1csc2ccccc12)NC(=O)NC[C@H](Cc1ccc(O)cc1)N(C)C [drawing 521] | 0.022 µM | 0.11 µM | 0.0083 µM | 
Cc1ccc([C@H](C)NC(=O)NC[C@H](Cc2ccc(O)cc2)N(C)C)cc1 [drawing 523] | 0.18 µM | 0.7 µM | 0.15 µM | 
C[C@H](NC(=O)NC[C@H](Cc1ccc(O)cc1)N(C)C)c1cccc2ccccc12 [drawing 524] | 0.074 µM | 0.54 µM | 0.085 µM | 
CN(C)[C@H](CNC(=O)NC1Cc2ccccc2C1)Cc1ccc(O)cc1 [drawing 526] | 0.051 µM | 0.056 µM | 0.0077 µM | 
